Tests used:
Pim1 kinase = Pim1 kinase (Homo sapiens, UniProt P11309); experiment: Pim1 AlphaScreen assay (high ATP)
Pim3 kinase = Pim3 kinase (Homo sapiens, UniProt Q86V86); experiment: Pim3 AlphaScreen assay (high ATP)
Protocol: (§1) The activity of Pim 1, Pim 2, & Pim 3 is measured using a homogeneous bead based system quantifying the amount of phosphorylated peptide substrate resulting from kinase-catalyzed phosphoryl transfer to a peptide substrate. Compounds to be tested are dissolved in 100% DMSO and directly distributed to a white 384-well plate at 0.25 μl per well. […] This is followed by the addition of 5 μl/well of Pim 1, Pim 2 or Pim 3 kinase in assay buffer (concentrations described below). Final assay concentrations (described below) are in 2.5% DMSO. The reactions are performed for ˜2 hours, then stopped by the addition of 10 μl of 0.75 μg/ml anti-phospho Ser/Thr antibody (Cell Signaling), 10 μg/ml Protein A AlphaScreen beads (Perkin Elmer), and 10 μg/ml streptavidin coated AlphaScreen beads in stop/detection buffer (50 mM EDTA, 95 mM Tris, pH=7.5, 0.01% Tween-20). The stopped reactions are incubated overnight in the dark. The phosphorylated peptide is detected via an oxygen anion initiated chemiluminescence/fluorescence cascade using the Envision plate reader (Perkin Elmer).

Pim2 kinase = Pim2 kinase (Homo sapiens, UniProt Q9P1W9); experiment: Pim2 AlphaScreen assay (high ATP)
Protocol: as §1

[1] = system: KMS11 (human myeloma cell line); experiment: Cell proliferation assay (CellTiter-Glo) in KMS11 cells; type: cell-based; conditions: KMS-11, 72 h, Table 5, 3 days, read-out: KMS11-luc EC50
Protocol: KMS11 (human myeloma cell line), were cultured in IMDM supplemented with 10% FBS, sodium pyruvate and antibiotics. Cells were plated in the same medium at a density of 2000 cells per well into 96 well tissue culture plates, with outside wells vacant, on the day of assay.
Test compounds supplied in DMSO were diluted into DMSO at 500 times the desired final concentrations before dilution into culture media to 2 times final concentrations.
After 3 days plates were equilibrated to room temperature and equal volume of CellTiter-Glow Reagent (Promega) was added to the culture wells. The plates were agitated briefly and luminescent signal was measured with luminometer.

Sequence of Pim1 kinase (P11309 whole entry): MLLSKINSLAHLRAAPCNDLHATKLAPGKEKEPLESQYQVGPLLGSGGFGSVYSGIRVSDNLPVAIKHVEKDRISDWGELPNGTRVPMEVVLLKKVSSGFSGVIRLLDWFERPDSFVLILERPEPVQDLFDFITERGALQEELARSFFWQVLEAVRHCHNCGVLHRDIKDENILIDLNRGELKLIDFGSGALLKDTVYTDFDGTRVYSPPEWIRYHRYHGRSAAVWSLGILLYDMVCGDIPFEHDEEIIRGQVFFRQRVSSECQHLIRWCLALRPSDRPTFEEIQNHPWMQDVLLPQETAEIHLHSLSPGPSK
Sequence of Pim2 kinase (Q9P1W9 whole entry): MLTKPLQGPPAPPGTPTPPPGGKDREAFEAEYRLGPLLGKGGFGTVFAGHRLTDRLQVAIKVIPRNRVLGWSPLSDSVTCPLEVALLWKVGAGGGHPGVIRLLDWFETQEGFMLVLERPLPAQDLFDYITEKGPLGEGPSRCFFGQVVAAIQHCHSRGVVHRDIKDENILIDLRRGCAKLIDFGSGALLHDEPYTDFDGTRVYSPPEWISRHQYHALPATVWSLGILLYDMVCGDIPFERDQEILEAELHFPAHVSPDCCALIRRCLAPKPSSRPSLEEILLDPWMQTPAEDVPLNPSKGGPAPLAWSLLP

| SMILES | IC50 (Pim1 kinase) | IC50 (Pim3 kinase) | IC50 (Pim2 kinase) | EC50 [1] |
| --- | --- | --- | --- | --- |
| C[C@H]1C[C@@H](c2ccncc2NC(=O)c2ccc(F)c(-c3c(F)cc(C4(F)COC4)cc3F)n2)C[C@@H](N)[C@]1(C)O [Example 69, N-(4-((1R,3R,4R,5S)-3-amino-4-hydroxy-4,5-dimethylcyclohexyl)pyridin-3-yl)-6-(2,6-difluoro-4-(3-fluorooxetan-3-yl)phenyl)-5-fluoropicolinamide] | 0.09 nM | 4.2 nM | 6.42 nM | 423 nM |
| C[C@H]1C[C@@H](c2ccncc2NC(=O)c2ccc(F)c(-c3c(F)cc(C4(F)CCOCC4)cc3F)n2)C[C@@H](N)[C@]1(C)O [Example 70, N-(4-((1R,3R,4R,5S)-3-amino-4-hydroxy-4,5-dimethylcyclohexyl)pyridin-3-yl)-6-(2,6-difluoro-4-(4-fluorotetrahydro-2H-pyran-4-yl)phenyl)-5-fluoropicolinamide] | 0.04 nM | 1.73 nM | 2.21 nM | 136 nM |
| C[C@H]1C[C@@H](c2ccncc2NC(=O)c2ccc(F)c(-c3c(F)cc(C(C)(C)O)cc3F)n2)C[C@@H](O)[C@]1(C)O [Example 73, 6-(2,6-difluoro-4-(2-hydroxypropan-2-yl)phenyl)-N-(4-((1R,3R,4R,5S)-3,4-dihydroxy-4,5-dimethylcyclohexyl)pyridin-3-yl)-5-fluoropicolinamide] | 0.42 nM | 63.1 nM | 156 nM | 189 nM |
| C[C@@H]1C[C@H](c2ccncc2NC(=O)c2ccc(F)c(-c3c(F)cc(C(C)(C)O)cc3F)n2)C[C@H](O)[C@@]1(C)O [Example 74, 6-(2,6-difluoro-4-(2-hydroxypropan-2-yl)phenyl)-N-(4-((1S,3S,4S,5R)-3,4-dihydroxy-4,5-dimethylcyclohexyl)pyridin-3-yl)-5-fluoropicolinamide] | 18.8 nM | 2870 nM | 6340 nM | 3470 nM |
| C[C@@H]1C[C@H](c2ccncc2NC(=O)c2ccc(F)c(-c3c(F)cc(C4(O)COC4)cc3F)n2)C[C@H](O)[C@@]1(C)O [Example 75] | 39.1 nM | 5900 nM | 8640 nM | 5780 nM |
| C[C@H]1C[C@@H](c2ccncc2NC(=O)c2ccc(F)c(-c3c(F)cc(C4(O)COC4)cc3F)n2)C[C@@H](O)[C@]1(C)O [Example 76] | 0.82 nM | 117 nM | 264 nM | 1140 nM |
| C[C@H]1C[C@@H](c2ccncc2NC(=O)c2ccc(F)c(-c3c(F)cc(CN4CCCC4=O)cc3F)n2)C[C@@H](O)[C@]1(C)O [Example 77, 6-(2,6-difluoro-4-((2-oxopyrrolidin-1-yl)methyl)phenyl)-N-(4-((1R,3R,4R,5S)-3,4-dihydroxy-4,5-dimethylcyclohexyl)pyridin-3-yl)-5-fluoropicolinamide] | 0.97 nM | 83.3 nM | 93.7 nM | 136 nM |
| C[C@@H]1C[C@H](c2ccncc2NC(=O)c2ccc(F)c(-c3c(F)cc(CN4CCCC4=O)cc3F)n2)C[C@H](O)[C@@]1(C)O [Example 78, 6-(2,6-difluoro-4-((2-oxopyrrolidin-1-yl)methyl)phenyl)-N-(4-((1S,3S,4S,5R)-3,4-dihydroxy-4,5-dimethylcyclohexyl)pyridin-3-yl)-5-fluoropicolinamide] | 18.7 nM | 969 nM | 1570 nM | > 10000 nM |
| C[C@@H]1C[C@H](c2ccncc2NC(=O)c2ccc(F)c(-c3c(F)cc(C4(O)CCCC4)cc3F)n2)C[C@H](O)[C@@]1(C)O [Example 79, 6-(2,6-difluoro-4-(1-hydroxycyclopentyl)phenyl)-N-(4-((1S,3S,4S,5R)-3,4-dihydroxy-4,5-dimethylcyclohexyl)pyridin-3-yl)-5-fluoropicolinamide] | 6.73 nM | 470 nM | 619 nM | > 10000 nM |
| C[C@H]1C[C@@H](c2ccncc2NC(=O)c2ccc(F)c(-c3c(F)cc(C4(O)CCCC4)cc3F)n2)C[C@@H](O)[C@]1(C)O [Example 80, 6-(2,6-difluoro-4-(1-hydroxycyclopentyl)phenyl)-N-(4-((1R,3R,4R,5S)-3,4-dihydroxy-4,5-dimethylcyclohexyl)pyridin-3-yl)-5-fluoropicolinamide] | 0.15 nM | 55 nM | 126 nM | 169 nM |
| C[C@H]1C[C@@H](c2ccncc2NC(=O)c2ccc(F)c(-c3c(F)cc(C4=CCCC4)cc3F)n2)C[C@@H](N)[C@]1(C)O [Example 81, N-(4-((1R,3R,4R,5S)-3-amino-4-hydroxy-4,5-dimethylcyclohexyl)pyridin-3-yl)-6-(4-cyclopentenyl-2,6-difluorophenyl)-5-fluoropicolinamide] | 0.03 nM | 0.94 nM | 4.42 nM | 409 nM |
| C[C@H]1C[C@@H](c2ccncc2NC(=O)c2nc(-c3c(F)cc(C4(O)CCOCC4)cc3F)sc2N)C[C@@H](N)[C@]1(C)O [Example 83, 5-amino-N-(4-((1R,3R,4R,5S)-3-amino-4-hydroxy-4,5-dimethylcyclohexyl)pyridin-3-yl)-2-(2,6-difluoro-4-(4-hydroxytetrahydro-2H-pyran-4-yl)phenyl)thiazole-4-carboxamide] | 0.03 nM | 0.71 nM | 3.71 nM | 9300 nM |
| C[C@H]1C[C@@H](c2ccncc2NC(=O)c2ccc(F)c(-c3c(F)cc(C(C)(C)C#N)cc3F)n2)C[C@@H](N)[C@]1(C)O [Example 86, N-(4-((1R,3R,4R,5S)-3-amino-4-hydroxy-4,5-dimethylcyclohexyl)pyridin-3-yl)-6-(4-(2-cyanopropan-2-yl)-2,6-difluorophenyl)-5-fluoropicolinamide] | 0.03 nM | 2.46 nM | 2.74 nM | 66 nM |

Other lines, results leading:

| IC50 (Pim1 kinase) | IC50 (Pim3 kinase) | IC50 (Pim2 kinase) | EC50 [1] | SMILES |
| --- | --- | --- | --- | --- |
| 0.03 nM | 0.73 nM | 2.14 nM | 38 nM | C[C@H]1C[C@@H](c2ccncc2NC(=O)c2ccc(F)c(-c3c(F)cc(OC4CCOCC4)cc3F)n2)C[C@@H](N)[C@]1(C)O [Example 65, N-(4-((1R,3R,4R,5S)-3-amino-4-hydroxy-4,5-dimethylcyclohexyl)pyridin-3-yl)-6-(2,6-difluoro-4-(tetrahydro-2H-pyran-4-yloxy)phenyl)-5-fluoropicolinamide] |
| 0.03 nM | 1.64 nM | 2.92 nM | 13 nM | C[C@H]1C[C@@H](c2ccncc2NC(=O)c2ccc(F)c(-c3c(F)cc(C(C)(C)O)cc3F)n2)C[C@@H](N)[C@]1(C)O [Example 66] |
| 0.01 nM | 0.96 nM | 2.5 nM | 127 nM | C[C@H]1C[C@@H](c2ccncc2NC(=O)c2ccc(F)c(-c3c(F)cc(C4CC4)cc3F)n2)C[C@@H](N)[C@]1(C)O [Example 67, N-(4-((1R,3R,4R,5S)-3-amino-4-hydroxy-4,5-dimethylcyclohexyl)pyridin-3-yl)-6-(4-cyclopropyl-2,6-difluorophenyl)-5-fluoropicolinamide] |
| 0.02 nM | 0.72 nM | 1.47 nM | 81 nM | C[C@H]1C[C@@H](c2ccncc2NC(=O)c2ccc(F)c(-c3c(F)cc(C4CCOCC4)cc3F)n2)C[C@@H](N)[C@]1(C)O [Example 71, N-(4-((1R,3R,4R,5S)-3-amino-4-hydroxy-4,5-dimethylcyclohexyl)pyridin-3-yl)-6-(2,6-difluoro-4-(tetrahydro-2H-pyran-4-yl)phenyl)-5-fluoropicolinamide] |
| 0.02 nM | 1.18 nM | 2.68 nM | 43 nM | C[C@H]1C[C@@H](c2ccncc2NC(=O)c2ccc(F)c(-c3c(F)cc(C4(O)CCCC4)cc3F)n2)C[C@@H](N)[C@]1(C)O [Example 82, N-(4-((1R,3R,4R,5S)-3-amino-4-hydroxy-4,5-dimethylcyclohexyl)pyridin-3-yl)-6-(2,6-difluoro-4-(1-hydroxycyclopentyl)phenyl)-5-fluoropicolinamide] |
| 0.01 nM | 0.48 nM | 2.8 nM | 343 nM | C[C@H]1C[C@@H](c2ccncc2NC(=O)c2nc(-c3c(F)cc(C4(F)CCOCC4)cc3F)sc2N)C[C@@H](N)[C@]1(C)O [Example 84, 5-amino-N-(4-((1R,3R,4R,5S)-3-amino-4-hydroxy-4,5-dimethylcyclohexyl)pyridin-3-yl)-2-(2,6-difluoro-4-(4-fluorotetrahydro-2H-pyran-4-yl)phenyl)thiazole-4-carboxamide] |
| 0.01 nM | 0.32 nM | 1.99 nM | 706 nM | C[C@H]1C[C@@H](c2ccncc2NC(=O)c2nc(-c3c(F)cc(C4CCOCC4)cc3F)sc2N)C[C@@H](N)[C@]1(C)O [Example 85, 5-amino-N-(4-((1R,3R,4R,5S)-3-amino-4-hydroxy-4,5-dimethylcyclohexyl)pyridin-3-yl)-2-(2,6-difluoro-4-(tetrahydro-2H-pyran-4-yl)phenyl)thiazole-4-carboxamide] |
| 0.01 nM | 0.41 nM | 1.91 nM | 57 nM | C[C@H]1C[C@@H](c2ccncc2NC(=O)c2ccc(F)c(-c3c(F)cc(N4CCOCC4)cc3F)n2)C[C@@H](N)[C@]1(C)O [Example 87, N-(4-((1R,3R,4R,5S)-3-amino-4-hydroxy-4,5-dimethylcyclohexyl)pyridin-3-yl)-6-(2,6-difluoro-4-morpholinophenyl)-5-fluoropicolinamide] |
